Data reported in patent US20250346597A1, “CONDENSED HETEROCYCLIC COMPOUNDS AS INHIBITOR OF DIACYLGLYCEROL KINASES” (BEONE MEDICINES I GMBH, priority 2023, published 2025).

What was measured:
DGKζ = DGKζ (Homo sapiens (Human), UniProt Q13574); test: Biochemical DGK IC50 assay (ADP-Glo, lipid micelle substrate), DGKζ; conditions: full length DGKζ 0.5 nM, ATP 140 μM, DAG 80 μM
Method: (§1) Enzymatic reactions of DGKζ, DGKα and DGKδ were performed using ADP-Glo assay with lipid micelle substrate. […] Full length DGKα (D21-10BG, SignalChem) and full length DGKδ (D23-10G, SignalChem) were purchased. Lipid micelle was prepared by dissolving DAG (Sigma, 317505-10MG) and PS (Sigma, P7769-100MG) with chloroform which was furtherly removed by rotary evaporation. The resulted product was resuspended in buffer containing 25 mM HEPES pH 7.0, 0.5 mM EDTA and 160 mM Octyl P-D glucopyranoside by vigorous mixing and ultrasonic (IID, Scientz).
(§2) The inhibition activities testing for the compound disclosed herein were carried out at room temperature in assay buffer containing 50 mM HEPES, 10 mM MgCl2, 0.01% BSA, 0.1 mM Na3VO4, 0.005% Tween-20 and 0.01 mM CaCl2. Compounds in DMSO were dispensed into wells of a black 384 well plate (Corning 4514) using D300e digital dispenser (Tecan). […] 3 μL 2× enzyme solution was added to wells. […] After 1 hour reaction, 5 μL ADP-Glo reagent (Promga V9101) was added and incubated for 40 minutes. 10 μL Kinase Detection reagent was added and incubated for 30 minutes. Luminescence was measured on a microplate reader (PHERAstar FSX, BMG labtech). The IC50s are calculated based on inhibition of enzyme activity in the presence of increasing concentrations of compounds.
Human His-TEV-DGK-zeta-pFastBac1 and human baculovirus samples was generated using the Bac-to-Bac baculovirus expression system (Invitrogen) according to the manufacturer's protocol. The DNA used for expression of DGK-zeta, have SEQ ID Nos: 1. Baculovirus amplification was achieved using infected SF9 cells at 1:2000 virus/cells ratios, and grown for 96 hours at 27° C. post-transfected.
The expression scaled up for each protein was carried out in the […] from CORNING. 4 L of 3×10^6 cells/mL Sf9 cells (Expression System, Invitrogen) grown in SF900™ II SFM insect medium (Expression System) was infected with virus stock at 1:200 virus/cells ratio, and grown for 48 hours at 27° C. post-transfection. The infected cell culture was harvested by centrifugation at 6000 rpm for 15 min 4° C. in a SORVALL LYNX6000 centrifuge. The cell pellets were stored at −80° C.
Full length human DGKζ produced as described above, was purified from Sf9 baculovirus-infected insect cell paste. The cells were lysed using sonication method, and the lysates were clarified by centrifugation.

DGKα = DGKα (Homo sapiens (Human), UniProt P23743); test: Biochemical DGK IC50 assay (ADP-Glo, lipid micelle substrate), DGKα; conditions: full length DGKα […], ATP 140 μM, DAG 80 μM; note: full length DGKα 7.5 nM
DGKα, sequence (P23743 whole entry): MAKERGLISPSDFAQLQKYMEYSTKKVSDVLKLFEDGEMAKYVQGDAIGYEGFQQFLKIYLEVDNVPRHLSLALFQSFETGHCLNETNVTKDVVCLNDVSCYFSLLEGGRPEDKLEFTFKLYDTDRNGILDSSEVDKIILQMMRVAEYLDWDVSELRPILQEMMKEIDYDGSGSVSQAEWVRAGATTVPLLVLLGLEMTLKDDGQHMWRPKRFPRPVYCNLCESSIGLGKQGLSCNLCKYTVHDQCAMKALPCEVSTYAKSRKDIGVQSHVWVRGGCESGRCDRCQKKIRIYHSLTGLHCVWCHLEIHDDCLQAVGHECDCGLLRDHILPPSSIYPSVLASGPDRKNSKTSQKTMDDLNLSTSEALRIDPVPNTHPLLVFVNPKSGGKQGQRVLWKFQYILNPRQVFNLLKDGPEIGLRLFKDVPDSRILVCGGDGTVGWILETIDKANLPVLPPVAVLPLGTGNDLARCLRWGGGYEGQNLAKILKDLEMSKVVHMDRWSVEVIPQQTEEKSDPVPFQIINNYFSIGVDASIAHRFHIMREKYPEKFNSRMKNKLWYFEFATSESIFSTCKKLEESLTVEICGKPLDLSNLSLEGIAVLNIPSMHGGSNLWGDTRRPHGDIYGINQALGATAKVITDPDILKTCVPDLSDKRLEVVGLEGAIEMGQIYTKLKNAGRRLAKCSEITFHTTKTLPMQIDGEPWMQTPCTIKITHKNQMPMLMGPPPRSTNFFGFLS
Method: as §1, §2

DGKζ, sequence (Q13574 other isoform, or with tags, fused parts or gaps): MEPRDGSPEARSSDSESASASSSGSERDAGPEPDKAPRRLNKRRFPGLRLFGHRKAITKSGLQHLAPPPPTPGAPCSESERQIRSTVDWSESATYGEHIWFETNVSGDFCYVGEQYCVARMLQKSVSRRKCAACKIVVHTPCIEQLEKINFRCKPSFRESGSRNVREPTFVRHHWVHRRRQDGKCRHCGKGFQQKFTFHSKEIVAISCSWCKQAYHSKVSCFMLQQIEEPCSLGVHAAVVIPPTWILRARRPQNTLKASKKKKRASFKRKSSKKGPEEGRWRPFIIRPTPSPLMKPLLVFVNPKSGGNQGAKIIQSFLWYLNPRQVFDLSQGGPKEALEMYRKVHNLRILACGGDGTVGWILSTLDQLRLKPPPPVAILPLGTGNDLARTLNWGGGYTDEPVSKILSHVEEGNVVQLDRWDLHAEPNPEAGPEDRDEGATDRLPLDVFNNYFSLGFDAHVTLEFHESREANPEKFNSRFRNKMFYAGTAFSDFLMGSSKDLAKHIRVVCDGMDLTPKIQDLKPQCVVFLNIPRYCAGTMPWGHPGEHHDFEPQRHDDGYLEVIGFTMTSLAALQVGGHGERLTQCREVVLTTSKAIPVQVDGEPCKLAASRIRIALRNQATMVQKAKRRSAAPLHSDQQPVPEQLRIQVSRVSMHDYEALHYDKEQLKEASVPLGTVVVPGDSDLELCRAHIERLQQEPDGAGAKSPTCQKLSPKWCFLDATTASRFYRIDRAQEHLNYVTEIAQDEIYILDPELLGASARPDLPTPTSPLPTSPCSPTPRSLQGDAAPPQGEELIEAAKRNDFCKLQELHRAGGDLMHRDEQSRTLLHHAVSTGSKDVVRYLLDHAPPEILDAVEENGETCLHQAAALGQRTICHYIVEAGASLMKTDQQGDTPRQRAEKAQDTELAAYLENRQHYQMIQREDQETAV

SMILES	IC50 (DGKζ)	IC50 (DGKα)
CC[C@H]1CN(C(C)c2ccc(C(=O)N3CC(OC)C3)cc2)[C@H](CC)CN1c1cc(=O)n(C)c2cn(CC#N)nc12 (single isomer, unassigned) [Compound A1a]	1440 nM	23 nM
CC[C@H]1CN(C(C)c2ccc(C(=O)N3CC(OC)C3)cc2)[C@H](CC)CN1c1cc(=O)n(C)c2cn(CC#N)nc12 (single isomer, unassigned) [Compound A1b]	> 10000 nM	734 nM
CC[C@H]1CN(C(C)c2cc(F)c(C(=O)N(C)C)c(F)c2)[C@H](CC)CN1c1cc(=O)n(C)c2cn(CC#N)nc12 (single isomer, unassigned) [Compound A3a]	227 nM	13600 nM
CC[C@H]1CN(C(C)c2cc(F)c(C(=O)N(C)C)c(F)c2)[C@H](CC)CN1c1cc(=O)n(C)c2cn(CC#N)nc12 (single isomer, unassigned) [Compound A3b]	551 nM	5900 nM
CC[C@H]1CN(C(C)c2ccc(C(=O)N(C)C)c(F)c2)[C@H](CC)CN1c1cc(=O)n(C)c2cn(CC#N)nc12 (single isomer, unassigned) [Compound A4a]	569 nM	2690 nM
CC[C@H]1CN(C(C)c2ccc(C(=O)N(C)C)c(F)c2)[C@H](CC)CN1c1cc(=O)n(C)c2cn(CC#N)nc12 (single isomer, unassigned) [Compound A4b]	3170 nM	4840 nM
CC[C@H]1CN(C(C)c2ccc(OC(C)C)cn2)[C@H](CC)CN1c1cc(=O)n(C)c2cn(CC#N)nc12 (single isomer, unassigned) [Compound A5la]	138 nM	26 nM
CC[C@H]1CN(C(C)c2ccc(OC(F)F)cc2)[C@H](CC)CN1c1cc(=O)n(C)c2cn(CC#N)nc12 (single isomer, unassigned) [Compound A19a]	130 nM	22 nM
CC[C@H]1CN(C(C)c2ccc(OC(F)F)cc2)[C@H](CC)CN1c1cc(=O)n(C)c2cn(CC#N)nc12 (single isomer, unassigned) [Compound A19b]	4900 nM	289 nM
CC[C@H]1CN(C(C)c2ccc(OC3COC3)c(C)c2)[C@H](CC)CN1c1cc(=O)n(C)c2cn(CC#N)nc12 (single isomer, unassigned) [Compound A21a]	1470 nM	2890 nM
CC[C@H]1CN(C(C)c2ccc(OC3COC3)c(C)c2)[C@H](CC)CN1c1cc(=O)n(C)c2cn(CC#N)nc12 (single isomer, unassigned) [Compound A21b]	> 10000 nM	> 150000 nM
CC[C@H]1CN(C(C)c2ccc(OC3COC3)c(F)c2)[C@H](CC)CN1c1cc(=O)n(C)c2cn(CC#N)nc12 (single isomer, unassigned) [Compound A23a]	3740 nM	2350 nM
CC[C@H]1CN(C(C)c2ccc(OC3COC3)c(F)c2)[C@H](CC)CN1c1cc(=O)n(C)c2cn(CC#N)nc12 (single isomer, unassigned) [Compound A23b]	534 nM	138 nM
CC[C@H]1CN(C(C)c2cc(F)c(CN(C)C)c(F)c2)[C@H](CC)CN1c1cc(=O)n(C)c2cn(CC#N)nc12 (single isomer, unassigned) [Compound A25a]	246 nM	3380 nM
CC[C@H]1CN(C(C)c2cc(F)c(CN(C)C)c(F)c2)[C@H](CC)CN1c1cc(=O)n(C)c2cn(CC#N)nc12 (single isomer, unassigned) [Compound A25b]	2200 nM	6020 nM
CC[C@H]1CN(C(C)c2ccc(CN3CCCC3)cc2)[C@H](CC)CN1c1cc(=O)n(C)c2cn(CC#N)nc12 (single isomer, unassigned) [Compound A26a]	4090 nM	1440 nM
CC[C@H]1CN(C(C)c2ccc(CN3CCCC3)cc2)[C@H](CC)CN1c1cc(=O)n(C)c2cn(CC#N)nc12 (single isomer, unassigned) [Compound A26b]	> 10000 nM	24700 nM
CC[C@H]1CN(C(C)c2ccc(OC)cc2)[C@H](CC)CN1c1cc(=O)n(C)c2cn(CC#N)nc12 (single isomer, unassigned) [Compound A34a]	75 nM	37 nM
CC[C@H]1CN(C(C)c2ccc(OC)cc2)[C@H](CC)CN1c1cc(=O)n(C)c2cn(CC#N)nc12 (single isomer, unassigned) [Compound A34b]	2940 nM	596 nM

SMILES	IC50 (DGKζ)	IC50 (DGKα)
CC[C@H]1CN(C(C)c2nc(C)c(C)s2)[C@H](CC)CN1c1cc(=O)n(C)c2cn(CC#N)nc12 (single isomer, unassigned) [Compound A35a]	234 nM	131 nM
CC[C@H]1CN(C(C)c2nc(C)c(C)s2)[C@H](CC)CN1c1cc(=O)n(C)c2cn(CC#N)nc12 (single isomer, unassigned) [Compound A35b]	2420 nM	> 150000 nM
CC[C@H]1CN(C(C)c2nc3c(s2)CCCC3)[C@H](CC)CN1c1cc(=O)n(C)c2cn(CC#N)nc12 (single isomer, unassigned) [Compound A36a]	57 nM	164 nM
CC[C@H]1CN(C(C)c2nc3c(s2)CCCC3)[C@H](CC)CN1c1cc(=O)n(C)c2cn(CC#N)nc12 (single isomer, unassigned) [Compound A36b]	946 nM	2110 nM
CC[C@H]1CN(C(C)c2ccc(C3CC3)nc2)[C@H](CC)CN1c1cc(=O)n(C)c2cn(CC#N)nc12 (single isomer, unassigned) [Compound A38a]	126 nM	810 nM
CC[C@H]1CN(C(C)c2ccc(C3CC3)nc2)[C@H](CC)CN1c1cc(=O)n(C)c2cn(CC#N)nc12 (single isomer, unassigned) [Compound A38b]	1180 nM	2350 nM
CC#CCn1cc2c(n1)c(N1C[C@@H](CC)N(C(C)c3ccc(C4CC4)nc3)C[C@@H]1CC)cc(=O)n2C (single isomer, unassigned) [Compound A39a]	464 nM	33 nM
CC#CCn1cc2c(n1)c(N1C[C@@H](CC)N(C(C)c3ccc(C4CC4)nc3)C[C@@H]1CC)cc(=O)n2C (single isomer, unassigned) [Compound A39b]	2360 nM	237 nM
CC[C@H]1CN(C(C)c2ccc(COC)nc2)[C@H](CC)CN1c1cc(=O)n(C)c2cn(CC#N)nc12 (single isomer, unassigned) [Compound A42a]	315 nM	1960 nM
CC[C@H]1CN(C(C)c2ccc(COC)nc2)[C@H](CC)CN1c1cc(=O)n(C)c2cn(CC#N)nc12 (single isomer, unassigned) [Compound A42b]	5060 nM	6640 nM
CC[C@H]1CN(C(C)c2ccc(C3CC3)nc2F)[C@H](CC)CN1c1cc(=O)n(C)c2cn(CC#N)nc12 (single isomer, unassigned) [Compound A45a]	30 nM	202 nM
CC[C@H]1CN(C(C)c2ccc(C3CC3)nc2F)[C@H](CC)CN1c1cc(=O)n(C)c2cn(CC#N)nc12 (single isomer, unassigned) [Compound A45b]	865 nM	728 nM
CC[C@H]1CN(C(C)c2ccc(C(C)(C)F)nc2)[C@H](CC)CN1c1cc(=O)n(C)c2cn(CC#N)nc12 (single isomer, unassigned) [Compound A46a]	6.4 nM	406 nM
CC[C@H]1CN(C(C)c2ccc(C(C)(C)F)nc2)[C@H](CC)CN1c1cc(=O)n(C)c2cn(CC#N)nc12 (single isomer, unassigned) [Compound A46b]	396 nM	913 nM
CC[C@H]1CN(C(C)c2cnc(C3CC3)cc2F)[C@H](CC)CN1c1cc(=O)n(C)c2cn(CC#N)nc12 (single isomer, unassigned) [Compound A47a]	88 nM	1190 nM
CC[C@H]1CN(C(C)c2cnc(C3CC3)cc2F)[C@H](CC)CN1c1cc(=O)n(C)c2cn(CC#N)nc12 (single isomer, unassigned) [Compound A47b]	1120 nM	3520 nM
CC[C@H]1CN(C(C)c2ccc(C3CC3)nc2)[C@H](CC)CN1c1c(F)c(=O)n(C)c2cn(CC#N)nc12 (single isomer, unassigned) [Compound A48a]	59 nM	240 nM
CC[C@H]1CN(C(C)c2ccc(N)nc2)[C@H](CC)CN1c1cc(=O)n(C)c2cn(CC#N)nc12 (single isomer, unassigned) [Compound A187b]	–	11900 nM
